system: authentic SARS-CoV-2 Delta (B.1.617.2) variant; assay: microbe, parasite or virus in culture; format: cell-based; details: Severe acute respiratory syndrome coronavirus 2, Vero C1008

Which IC50 does the source give for `C#CCOc1ccc(CCN2C(=O)/C(=C/c3ccc(-c4ccc(Cl)c(C(=O)O)c4)o3)SC2=S)cc1` [FD007] here?
Its IC50 is 52.5 nM.

Which IC50 does the source give for `C#CCOCCOc1ccc(CCN2C(=O)/C(=C/c3ccc(-c4ccc(Cl)c(C(=O)O)c4)o3)SC2=S)cc1` [FD008] here?
The IC50 was 95.9 nM.

Which IC50 does the source give for `CCOc1ccc(CCN2C(=O)/C(=C/c3ccc(-c4ccc(Cl)c(C(=O)O)c4)o3)SC2=S)cc1` [FD009] here?
The IC50 was 13.5 nM.

With `O=C(O)c1cc(-c2ccc(/C=C3\SC(=S)N(CCc4ccc(OCc5ccc(F)cc5)cc4)C3=O)o2)ccc1Cl` [FD010] as the compound, how does the IC50 read?
Its IC50 is 26.3 nM.

With `O=C(O)c1cc(-c2ccc(/C=C3\SC(=S)N(CCc4ccc(OCC5CC5)cc4)C3=O)o2)ccc1Cl` [FD012] as the compound, how does the IC50 read?
Its IC50 is 126 nM.

Which IC50 does the source give for `O=C(O)c1cc(-c2ccc(/C=C3\SC(=S)N(CCc4ccc(OCc5ccsc5)cc4)C3=O)o2)ccc1Cl` [FD013] here?
The IC50 was 60.3 nM.

For `CCC(CC)COC(=O)[C@H](C)N[P@](=O)(OC[C@H]1O[C@@](C#N)(c2ccc3c(N)ncnn23)[C@H](O)[C@@H]1O)Oc1ccccc1` [Remdesivir, remdesivir, reference compound], which IC50 is on record?
Its IC50 is 18.6 nM.

Source: PMC8954792 (Viruses, 2022)
